Results reported in patent US8759342B2, “Benzo[1,4]oxazin-3-one, benzo[1,4]thiazin-3-one and quinolin-2-one urotensin II receptor antagonists” (Janssen Pharmaceutica NV, priority 2006, dated 2014).

Biological target: T1, rat GPR14 (U-II receptor) (Rattus norvegicus, UniProt P49684)
T1 construct: expressed in transfected cells
T1 sequence (P49684 1-386): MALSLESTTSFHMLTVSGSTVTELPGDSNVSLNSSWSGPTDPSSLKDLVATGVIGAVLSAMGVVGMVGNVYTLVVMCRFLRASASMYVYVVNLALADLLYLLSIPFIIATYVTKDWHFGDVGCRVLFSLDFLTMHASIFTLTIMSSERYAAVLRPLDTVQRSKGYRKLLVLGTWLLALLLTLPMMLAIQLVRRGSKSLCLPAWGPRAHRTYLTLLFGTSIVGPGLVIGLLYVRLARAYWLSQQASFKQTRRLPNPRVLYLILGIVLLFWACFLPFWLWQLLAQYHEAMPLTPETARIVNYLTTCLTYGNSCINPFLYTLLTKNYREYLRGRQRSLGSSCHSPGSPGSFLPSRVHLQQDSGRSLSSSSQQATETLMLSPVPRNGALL
Experiment: Calcium flux assay (FLIPR)
Type: cell-based
Conditions: Inhibition of acetyl-cyclic[Cys-Phe-Trp-Lys-(2-Nal)-Cys]-NH2 (1 nM) induced Ca2+ mobilization (FLIPR) in CHO cells transfected with rat UII receptor; 5 min incubation
Description: To derive these cells, the complete coding sequence of rat […] was amplified by nested PCR from rat heart marathon-Ready cDNA. […] The PCR products were cloned into pcDNA3 (Invitrogen) digested with EcoR I and Xba I. Clones containing rat U-II receptor were verified by complete sequencing of the U-II receptor insert to ensure a lack of PCR-introduced errors. The constructed vector was transfected into CHO cells by using lipofectamine (GIBCO BRL). CHO cells with high expression of rat U-II receptor were selected and established as stable cell lines by using G418. CHO cells were seeded at 25,000 cells per well into 96-well, black-wall, clear-bottom microtiter plates 24 hrs before assay. Cells in culture media (DMEM/F12 containing 15 mM HEPES, L-glutamine, pyridoxine hydrochloride; 10% fetal bovine serum; 1 mg/mL G418 sulfate; antibiotic-antimycotic; pH 7.4) were loaded with proprietary dye, from the FLIPR Calcium Assay Kit (Molecular Devices), prepared in assay buffer (Hanks Balanced Salts Solution, 20 mM HEPES, 0.1% BSA, 2.5 mM probenecid, pH 7.4), and incubated for 1 hr at 37° C. Calcium mobilization determinations were performed at room temperature (23° C.).

Row | SMILES | IC50 [µM]
1 | O=C(NCCN1CCCCC1)c1cc(Cl)ccc1C1CCN(CCN2C(=O)COc3ccccc32)CC1 [Cpd 71, 5-chloro-2-{1-[2-(3-oxo-2,3-dihydro-benzo[1,4]oxazin-4-yl)-ethyl]-piperidin-4-yl}-N-(2-piperidin-1-yl-ethyl)-benzamide] | 0.27
2 | O=C(NCCCCc1ccccc1)c1ccccc1C1CCN(CCN2C(=O)COc3ccccc32)CC1 [Cpd 4] | 3.1
3 | CCCNC(=O)c1ccccc1C1CCN(CCN2C(=O)COc3ccccc32)CC1 [Cpd 29, 2-{1-[2-(3-oxo-2,3-dihydro-benzo[1,4]oxazin-4-yl)-ethyl]-piperidin-4-yl}-N-propyl-benzamide] | 20
4 | COC(=O)c1cc(Cl)ccc1C1CCN(CCN2C(=O)COc3ccccc32)CC1 [Cpd 56, 5-chloro-2-{1-[2-(3-oxo-2,3-dihydro-benzo[1,4]oxazin-4-yl)-ethyl]-piperidin-4-yl}-benzoic acid methyl ester] | 8
5 | O=C(NCc1ccncc1)c1ccccc1C1CCN(CCN2C(=O)COc3ccccc32)CC1 [Cpd 44, 2-{1-[2-(3-oxo-2,3-dihydro-benzo[1,4]oxazin-4-yl)-ethyl]-piperidin-4-yl}-N-pyridin-4-ylmethyl-benzamide] | 21
6 | CC(C)(C)OC(=O)N1CCN(CCNC(=O)c2ccccc2C2CC3CCC(C2)N3CCN2C(=O)COc3ccccc32)CC1 (stereo not shown) [Cpd 96, 4-[2-(2-{8-[2-(3-oxo-2,3-dihydro-benzo[1,4]oxazin-4-yl)-ethyl]-8-aza-bicyclo[3.2.1]oct-3-yl}-benzoylamino)-ethyl]-piperazine-1-carboxylic acid tert-butyl ester] | 3.5
7 | O=C(c1ccccc1C1CCN(CCN2C(=O)COc3ccccc32)CC1)N1CCc2ccccc2C1 [Cpd 53, 4-(2-{4-[2-(3,4-dihydro-1H-isoquinoline-2-carbonyl)-phenyl]-piperidin-1-yl}-ethyl)-4H-benzo[1,4]oxazin-3-one] | 18
8 | O=C(NCCc1ccc(Cl)cc1)c1ccccc1C1CCN(CCN2C(=O)COc3ccccc32)CC1 [Cpd 9, N-[2-(4-chloro-phenyl)-ethyl]-2-{1-[2-(3-oxo-2,3-dihydro-benzo[1,4]oxazin-4-yl)-ethyl]-piperidin-4-yl}-benzamide] | 3.2
9 | O=C1COc2ccccc2N1CCN1C2CCC1CC(c1ccccc1)C2 (stereo not shown) [Cpd 101, 4-[2-(3-phenyl-8-aza-bicyclo[3.2.1]oct-8-yl)-ethyl]-4H-benzo[1,4]oxazin-3-one] | 19
10 | O=C(NCCN1CCCC1)c1ccccc1C1CCN(CCN2C(=O)COc3ccccc32)CC1 [Cpd 30, 2-{1-[2-(3-oxo-2,3-dihydro-benzo[1,4]oxazin-4-yl)-ethyl]-piperidin-4-yl}-N-(2-pyrrolidin-1-yl-ethyl)-benzamide] | 32
11 | O=C(NCCc1cc(F)cc(F)c1)c1ccccc1C1CCN(CCN2C(=O)COc3ccccc32)CC1 [Cpd 21, N-[2-(3,5-difluoro-phenyl)-ethyl]-2-{1-[2-(3-oxo-2,3-dihydro-benzo[1,4]oxazin-4-yl)-ethyl]-piperidin-4-yl}-benzamide] | 9
12 | O=C1COc2ccccc2N1CCN1CCC(C(=O)NCCCCc2ccccc2)(c2ccccc2)CC1 [Cpd 108, 1-[2-(3-oxo-2,3-dihydro-benzo[1,4]oxazin-4-yl)-ethyl]-4-phenyl-piperidine-4-carboxylic acid (4-phenyl-butyl)-amide] | 8.8
13 | O=C(NCCN1CCCCC1)c1ccccc1C1CCN(CCN2C(=O)COc3ccccc32)CC1 [Cpd 52, 2-{1-[2-(3-oxo-2,3-dihydro-benzo[1,4]oxazin-4-yl)-ethyl]-piperidin-4-yl}-N-(2-piperidin-1-yl-ethyl)-benzamide] | 16
14 | O=C(NCCc1cccc(F)c1F)c1ccccc1C1CCN(CCN2C(=O)COc3ccccc32)CC1 [Cpd 23, N-[2-(2,3-difluoro-phenyl)-ethyl]-2-{1-[2-(3-oxo-2,3-dihydro-benzo[1,4]oxazin-4-yl)-ethyl]-piperidin-4-yl}-benzamide] | 7
15 | CN(Cc1ccccc1)C(=O)c1ccccc1C1CCN(CCN2C(=O)COc3ccccc32)CC1 [Cpd 5, N-benzyl-N-methyl-2-{1-[2-(3-oxo-2,3-dihydro-benzo[1,4]oxazin-4-yl)-ethyl]-piperidin-4-yl}-benzamide] | 11
16 | O=C(NCCc1ccc(Cl)c(Cl)c1)c1ccccc1C1CCN(CCN2C(=O)COc3ccccc32)CC1 [Cpd 11, N-[2-(3,4-dichloro-phenyl)-ethyl]-2-{1-[2-(3-oxo-2,3-dihydro-benzo[1,4]oxazin-4-yl)-ethyl]-piperidin-4-yl}-benzamide] | 5.4

Row | SMILES | IC50 [µM]
17 | O=C(NCCc1cc(F)ccc1F)c1ccccc1C1CCN(CCN2C(=O)COc3ccccc32)CC1 [Cpd 22, N-[2-(2,5-difluoro-phenyl)-ethyl]-2-{1-[2-(3-oxo-2,3-dihydro-benzo[1,4]oxazin-4-yl)-ethyl]-piperidin-4-yl}-benzamide] | 13
18 | O=C(NCCN1CCNCC1)c1cc(Cl)ccc1C1CCN(CCN2C(=O)COc3ccccc32)CC1 [Cpd 73, 5-chloro-2-{1-[2-(3-oxo-2,3-dihydro-benzo[1,4]oxazin-4-yl)-ethyl]-piperidin-4-yl}-N-(2-piperazin-1-yl-ethyl)-benzamide] | 1.9
19 | O=C(NCc1cccs1)c1ccccc1C1CCN(CCN2C(=O)COc3ccccc32)CC1 [Cpd 46, 2-{1-[2-(3-oxo-2,3-dihydro-benzo[1,4]oxazin-4-yl)-ethyl]-piperidin-4-yl}-N-thiophen-2-ylmethyl-benzamide] | 6
20 | O=C(NCCc1ccc(F)c(F)c1)c1ccccc1C1CCN(CCN2C(=O)COc3ccccc32)CC1 [Cpd 19, N-[2-(3,4-difluoro-phenyl)-ethyl]-2-{1-[2-(3-oxo-2,3-dihydro-benzo[1,4]oxazin-4-yl)-ethyl]-piperidin-4-yl}-benzamide] | 6
21 | O=C1COc2ccccc2N1CCN1CCC(c2cccc(F)c2)CC1 [Cpd 88, 4-{2-[4-(3-fluoro-phenyl)-piperidin-1-yl]-ethyl}-4H-benzo[1,4]oxazin-3-one] | 28
22 | COc1ccc(C2CCN(CCN3C(=O)COc4ccccc43)CC2)cc1 [Cpd 87, 4-{2-[4-(4-methoxy-phenyl)-piperidin-1-yl]-ethyl}-4H-benzo[1,4]oxazin-3-one] | 47
23 | O=C(NCc1ccccc1)c1ccccc1C1CCN(CCN2C(=O)COc3ccccc32)CC1 [Cpd 2, N-benzyl-2-{1-[2-(3-oxo-2,3-dihydro-benzo[1,4]oxazin-4-yl)-ethyl]-piperidin-4-yl}-benzamide] | 7.9
24 | CCOCCCNC(=O)c1ccccc1C1CCN(CCN2C(=O)COc3ccccc32)CC1 [Cpd 38, N-(3-ethoxy-propyl)-2-{1-[2-(3-oxo-2,3-dihydro-benzo[1,4]oxazin-4-yl)-ethyl]-piperidin-4-yl}-benzamide] | 23
25 | CC(C)NC(=O)NCCCCCNC(=O)c1cc(Cl)ccc1C1CCN(CCN2C(=O)COc3ccccc32)CC1 [Cpd 80, 5-chloro-N-[5-(3-isopropyl-ureido)-pentyl]-2-{1-[2-(3-oxo-2,3-dihydro-benzo[1,4]oxazin-4-yl)-ethyl]-piperidin-4-yl}-benzamide] | 0.21
26 | COc1ccc(OC)c(CCNC(=O)c2ccccc2C2CCN(CCN3C(=O)COc4ccccc43)CC2)c1 [Cpd 13, N-[2-(2,5-dimethoxy-phenyl)-ethyl]-2-{1-[2-(3-oxo-2,3-dihydro-benzo[1,4]oxazin-4-yl)-ethyl]-piperidin-4-yl}-benzamide] | 8
27 | O=C(NCCc1ccc(C(F)(F)F)cc1)c1ccccc1C1CCN(CCN2C(=O)COc3ccccc32)CC1 [Cpd 40, 2-{1-[2-(3-oxo-2,3-dihydro-benzo[1,4]oxazin-4-yl)-ethyl]-piperidin-4-yl}-N-[2-(4-trifluoromethyl-phenyl)-ethyl]-benzamide] | 4
28 | COc1ccc(CCNC(=O)c2ccccc2C2CCN(CCN3C(=O)COc4ccccc43)CC2)cc1OC [Cpd 10, N-[2-(3,4-dimethoxy-phenyl)-ethyl]-2-{1-[2-(3-oxo-2,3-dihydro-benzo[1,4]oxazin-4-yl)-ethyl]-piperidin-4-yl}-benzamide] | 13
29 | CC(CNC(=O)c1ccccc1C1CCN(CCN2C(=O)COc3ccccc32)CC1)c1ccccc1 (stereo not shown) [Cpd 28, 2-{1-[2-(3-oxo-2,3-dihydro-benzo[1,4]oxazin-4-yl)-ethyl]-piperidin-4-yl}-N-(2-phenyl-propyl)-benzamide] | 9
30 | O=C1COc2ccccc2N1CCN1CCC(c2ccc(Cl)cc2)CC1 [Cpd 85, 4-{2-[4-(4-chloro-phenyl)-piperidin-1-yl]-ethyl}-4H-benzo[1,4]oxazin-3-one] | 18
31 | O=C1COc2ccccc2N1CCN1CCC(C(=O)NCCc2ccccc2)(c2ccccc2)CC1 [Cpd 105, 1-[2-(3-oxo-2,3-dihydro-benzo[1,4]oxazin-4-yl)-ethyl]-4-phenyl-piperidine-4-carboxylic acid phenethyl-amide] | 7
